Results taken from US20180057505A1, “BICYCLIC HETEROARYL COMPOUNDS USEFUL AS INHIBITORS OF THE PAR-2 SIGNALING PATHWAY” (VERTEX PHARMACEUTICALS INCORPORATED, priority 2015, published 2018).

Tests used:
Type in all cases: cell-based
PAR2 (HT-29 cells) [1] = target: T1, PAR2 (HT-29 cells) (Homo sapiens, UniProt P55085); assay: Ca FLIPR TETRA assay, ANTAGONIST mode, activator 8 μM SLIGKV; settings: HT-29 cells, activator 8 μM SLIGKV; maximal antagonist concentration per Method (A: 0.1, 1 or 2 μM; B: 50 μM)
T1 construct: host or cells: HT-29
T1 sequence (P55085 26-397): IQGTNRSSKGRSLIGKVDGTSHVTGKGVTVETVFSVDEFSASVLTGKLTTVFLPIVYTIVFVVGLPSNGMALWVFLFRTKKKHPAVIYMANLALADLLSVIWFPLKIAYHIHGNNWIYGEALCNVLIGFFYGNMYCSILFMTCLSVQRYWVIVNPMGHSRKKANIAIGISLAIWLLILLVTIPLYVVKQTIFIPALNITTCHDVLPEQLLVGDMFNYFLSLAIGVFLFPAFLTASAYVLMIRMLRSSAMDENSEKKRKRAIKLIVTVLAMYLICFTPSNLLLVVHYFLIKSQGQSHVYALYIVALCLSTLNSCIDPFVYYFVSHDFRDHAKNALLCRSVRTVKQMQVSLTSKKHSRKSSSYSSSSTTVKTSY
Description: (§1) Protocol for Testing PAR2 Compounds in ANTAGONIST Mode Using the Ca FLIPR^TETRA Assay (384 Well).
(§2) 23000 HT-29 cells (ATCC# HTB-38) were plated in 384-well black, transparent-flat bottom plates and incubated in 25 uL of 1% FBS/McCoy's media ON at 37° C. under an atmosphere of 5% CO2. The following day, 25 uL FLIPR calcium 5 Molecular Devices assay reagent (Cat: R-8186) was added. Plates were incubated at 37° C. and r. t. for 45 min and 15 min, respectively. Compounds dilutions were prepared in 100% DMSO using a Biomek FX and diluted 20-fold in HBSS and then 5.5 uL was added directly to the cells by the FLIPR^TETRA (10× dilution) using FLIPR Tetra Pipette tips, black, non-sterile, 384 Molecular Devices (Cat: 9000-0764).
(§3) A first read was performed to determine whether the test compounds on their own can activate Ca^2+ responses. The cells were incubated with the compounds for 30 min at r. t. and then read in ANTAGONIST mode in the same plate by stimulating with 6.2 uL of a fixed concentration of the activator: final concentrations 8 μM SLIGKV, 1 U/mL Thrombin, 3.1 U/mL trypsin, or 0.6 μM UTP.

PAR2 (HT-29 cells) [2] = target: T1, PAR2 (HT-29 cells); assay: Ca FLIPR TETRA assay, ANTAGONIST mode, activator 3.1 U/mL trypsin; settings: for IC50: HT-29 cells, activator 3.1 U/mL trypsin, maximal antagonist concentration per Method (A: 0.1, 1 or 2 μM; B: 50 μM)
Description: as §1, §2, §3

[3] = test system: Thrombin-stimulated Ca2+ response in HT-29 cells; assay: Ca FLIPR TETRA assay, ANTAGONIST mode, activator 1 U/mL Thrombin; settings: HT-29 cells, activator 1 U/mL Thrombin
Description: as §1, §2, §3

[4] = test system: UTP-stimulated Ca2+ response in HT-29 cells; assay: Ca FLIPR TETRA assay, ANTAGONIST mode, activator 0.6 μM UTP; settings: for IC50: HT-29 cells, activator 0.6 μM UTP; for inhibition at 50 µM: HT-29
Description: as §1, §2, §3

In the case of `CCC(CC)C(=O)N1CCN(C(=O)c2cc3nc(-c4ccc(F)cc4)cc(C(C)C)c3o2)C[C@@H]1C` [Example I-82], the IC50 (PAR2 (HT-29 cells) [1]) is reported as 0.18 µM, the “Trypsin, % @ 50” value (PAR2 (HT-29 cells) [2]; @ 50 (μM)) is reported as 70% @ 50 and the IC50 ([3]; Homo sapiens) is reported as greater than 50 µM. The IC50 ([4]; Homo sapiens) was 47 µM.

With `CC(C)c1cc(-c2ccc(F)cc2)nc2cc(C(=O)N3CCN(C(=O)C(O)c4ccc(F)cc4)[C@@H](C)C3)oc12` (stereo partly shown) [Example I-83] the IC50 (PAR2 (HT-29 cells) [1]) was 0.0045 µM, the IC50 (PAR2 (HT-29 cells) [2]) was 0.0078 µM and the IC50 ([3]; Homo sapiens) was 11 µM. It also gave an IC50 ([4]; Homo sapiens) of 29 µM.

`CO[C@@H](C(=O)N1CCN(C(=O)c2cc3nc(-c4ccc(F)cc4)cc(C(C)C)c3o2)C[C@@H]1C)c1ccccc1` [Example I-84] gave an IC50 (PAR2 (HT-29 cells) [1]) of 0.0063 µM, an IC50 (PAR2 (HT-29 cells) [2]) of 0.029 µM and an IC50 ([3]; Homo sapiens) of 50 µM. The IC50 ([4]; Homo sapiens) was greater than 25 µM.

`CC(Oc1ccccc1)C(=O)N1CCN(C(=O)c2cc3nc(-c4ccc(F)cc4)cc(C(C)C)c3o2)C[C@@H]1C` (stereo partly shown) [Example I-85] gave an IC50 (PAR2 (HT-29 cells) [1]) of 0.03 µM, an IC50 (PAR2 (HT-29 cells) [2]) of 0.25 µM and an IC50 ([3]; Homo sapiens) greater than 50 µM. It also gave an IC50 ([4]; Homo sapiens) greater than 50 µM.

In the case of `CC(C)c1cc(-c2ccc(F)cc2)nc2cc(C(=O)N3CCN(C(=O)c4ccno4)[C@@H](C)C3)oc12` [Example I-86], the IC50 (PAR2 (HT-29 cells) [1]) is reported as 0.39 µM, the IC50 (PAR2 (HT-29 cells) [2]) is reported as 0.53 µM and the IC50 ([3]; Homo sapiens) is reported as greater than 50 µM. For the same molecule, the inhibition at 50 µM ([4]; Homo sapiens) was 60%.

With `CC(C)c1cc(-c2ccc(F)cc2)nc2cc(C(=O)N3CCN(C(=O)C(C)(C)O)[C@@H](C)C3)oc12` [Example I-87] the IC50 (PAR2 (HT-29 cells) [1]) was 3.7 µM, the IC50 (PAR2 (HT-29 cells) [2]) was 3.8 µM and the IC50 ([3]; Homo sapiens) was 19 µM. For the same molecule, the IC50 ([4]; Homo sapiens) was 16 µM.

In the case of `CC(C)c1cc(-c2ccc(F)cc2)nc2cc(C(=O)N3CCN(C(=O)C4CCCCO4)[C@@H](C)C3)oc12` (stereo partly shown) [Example I-88], the IC50 (PAR2 (HT-29 cells) [1]) is reported as 0.16 µM, the IC50 (PAR2 (HT-29 cells) [2]) is reported as 0.34 µM and the IC50 ([3]; Homo sapiens) is reported as 17 µM. The IC50 ([4]; Homo sapiens) was 17 µM.

Work on `CC(C)c1cc(-c2ccc(F)cc2)nc2cc(C(=O)N3CCN(C(=O)C4(O)CCC4)[C@@H](C)C3)oc12` [Example I-89] yielded an IC50 (PAR2 (HT-29 cells) [1]) of 1 µM, an IC50 (PAR2 (HT-29 cells) [2]) of 1.1 µM and an IC50 ([3]; Homo sapiens) of 13 µM. It also gave an IC50 ([4]; Homo sapiens) of 11 µM.

Work on `CC(C)c1cc(-c2ccc(F)cc2)nc2cc(C(=O)N3CCN(C(=O)[C@H](O)CC(C)(C)C)[C@@H](C)C3)oc12` [Example I-90] yielded an IC50 (PAR2 (HT-29 cells) [1]) of 0.0026 µM, an IC50 (PAR2 (HT-29 cells) [2]) of 0.0072 µM and an IC50 ([3]; Homo sapiens) greater than 50 µM. It also gave an IC50 ([4]; Homo sapiens) of 42 µM.

In the case of `CC(C)c1cc(-c2ccc(F)cc2)nc2cc(C(=O)N3CCN(C(=O)C4(O)CCOCC4)[C@@H](C)C3)oc12` [Example I-91], the IC50 (PAR2 (HT-29 cells) [1]) is reported as 3.3 µM, the IC50 (PAR2 (HT-29 cells) [2]) is reported as 3.8 µM and the IC50 ([3]; Homo sapiens) is reported as 9.4 µM. It also gave an IC50 ([4]; Homo sapiens) of 11 µM.

`CC(C)c1cc(-c2ccc(F)cc2)nc2cc(C(=O)N3CCN(C(=O)C4(O)CCC4)CC3)oc12` [Example I-92] showed an IC50 (PAR2 (HT-29 cells) [1]) of 4.7 µM, an IC50 (PAR2 (HT-29 cells) [2]) of 6.2 µM and an IC50 [3] of 7.9 µM. For the same molecule, the IC50 [4] was 7.4 µM.

`CC(C)c1cc(-c2ccc(F)cc2)nc2cc(C(=O)N3CCN(C(=O)[C@@H](C)O)CC3)oc12` [Example I-93] was tested, and the IC50 (PAR2 (HT-29 cells) [1]) was 18 µM, the IC50 (PAR2 (HT-29 cells) [2]) was 16 µM and the IC50 ([3]; Homo sapiens) was 25 µM. The IC50 ([4]; Homo sapiens) was 29 µM.

`CC(C)c1cc(-c2ccc(F)cc2)nc2cc(C(=O)N3CCN(C(=O)[C@H](O)CC(C)(C)C)CC3)oc12` [Example I-94] was tested, and the IC50 (PAR2 (HT-29 cells) [1]) was 1.2 µM, the IC50 (PAR2 (HT-29 cells) [2]) was 0.62 µM and the IC50 ([3]; Homo sapiens) was 6.7 µM. For the same molecule, the inhibition at 50 µM ([4]; Homo sapiens) was 74%.

Molecule `CC(C)c1cc(-c2ccc(F)cc2)nc2cc(C(=O)N3CCN(C(=O)C4(O)CCOCC4)CC3)oc12` [Example I-95] has an IC50 (PAR2 (HT-29 cells) [1]) of 10 µM, an IC50 (PAR2 (HT-29 cells) [2]) of 8.9 µM and an IC50 ([3]; Homo sapiens) of 15 µM. It also gave an IC50 ([4]; Homo sapiens) of 14 µM.

`CC(C)c1cc(-c2ccc(F)cc2)nc2cc(C(=O)N3CCN(C(=O)C(C)(C)O)CC3)oc12` [Example I-96] gave an IC50 (PAR2 (HT-29 cells) [1]) of 13 µM, an IC50 (PAR2 (HT-29 cells) [2]) of 12 µM and an IC50 ([3]; Homo sapiens) of 17 µM. The IC50 ([4]; Homo sapiens) was 14 µM.

`CC(C)c1cc(-c2ccc(F)cc2)nc2cc(C(=O)N3CCN(C(=O)C4(O)CCC4)C[C@H]3C)oc12` [Example I-97] gave an IC50 (PAR2 (HT-29 cells) [1]) of 4.1 µM, an IC50 (PAR2 (HT-29 cells) [2]) of 5.1 µM and an IC50 ([3]; Homo sapiens) of 18 µM. The IC50 ([4]; Homo sapiens) was 15 µM.
